Measured values from article PMC9865587, “Inhibitory Effects of 2-Aminoethoxydiphenyl Borate (2-APB) on Three KV1 Channel Currents” (Molecules, 2023).

Key:
Experiment in all cases: cell-based
KV1.4 [1] = target: T1, KV1.4 (Homo sapiens, UniProt P22459, N-TERMINALTRUNCATION(1–61DELETED))
T1 construct: gene KCNA4

KV1.2 = target: T2, KV1.2 (Homo sapiens, UniProt P16389)
T2 construct: gene KCNA2

KV1.4 [2] = target: T3, KV1.4 (Homo sapiens, UniProt P22459, T551A); details: CHO
T3 construct: gene KCNA4
T3 sequence (P22459 whole entry T551A): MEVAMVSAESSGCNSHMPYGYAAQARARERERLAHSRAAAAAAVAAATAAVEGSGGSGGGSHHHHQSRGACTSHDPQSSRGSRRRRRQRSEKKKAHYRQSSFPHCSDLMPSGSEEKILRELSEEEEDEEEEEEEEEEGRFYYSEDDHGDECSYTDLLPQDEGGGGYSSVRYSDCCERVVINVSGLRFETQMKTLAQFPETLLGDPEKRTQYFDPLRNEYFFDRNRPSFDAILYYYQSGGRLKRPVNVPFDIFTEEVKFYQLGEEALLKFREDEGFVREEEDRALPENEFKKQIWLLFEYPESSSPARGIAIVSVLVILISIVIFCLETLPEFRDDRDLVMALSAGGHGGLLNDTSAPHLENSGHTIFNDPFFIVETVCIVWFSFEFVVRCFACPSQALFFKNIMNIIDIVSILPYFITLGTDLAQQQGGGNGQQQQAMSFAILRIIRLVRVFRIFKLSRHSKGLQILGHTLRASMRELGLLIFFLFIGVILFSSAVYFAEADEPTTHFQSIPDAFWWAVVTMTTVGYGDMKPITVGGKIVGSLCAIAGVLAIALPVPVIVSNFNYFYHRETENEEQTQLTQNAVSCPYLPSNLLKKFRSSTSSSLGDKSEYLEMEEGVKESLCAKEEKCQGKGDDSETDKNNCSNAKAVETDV

KV1.4 [3] = target: T4, KV1.4 (Homo sapiens, UniProt P22459, V549A); details: CHO
T4 construct: gene KCNA4
T4 sequence (P22459 whole entry V549A): as the sequence (P22459 whole entry T551A) above, with V549A, A551T counted along it

KV1.4 [4] = target: T5, KV1.4 (Homo sapiens, UniProt P22459, V558A); details: CHO
T5 construct: gene KCNA4
T5 sequence (P22459 whole entry V558A): as the sequence (P22459 whole entry T551A) above, with A551T, V558A counted along it

KV1.4 [5] = target: T6, KV1.4 (Homo sapiens, UniProt P22459, V556A); details: CHO
T6 construct: gene KCNA4
T6 sequence (P22459 whole entry V556A): as the sequence (P22459 whole entry T551A) above, with A551T, V556A counted along it

KV1.4 [6] = target: T7, KV1.4 (Homo sapiens, UniProt P22459, L554A); details: CHO
T7 construct: gene KCNA4
T7 sequence (P22459 whole entry L554A): as the sequence (P22459 whole entry T551A) above, with A551T, L554A counted along it

KV1.4 [7] = target: T8, KV1.4 (Homo sapiens, UniProt P22459, A553V); details: CHO
T8 construct: gene KCNA4
T8 sequence (P22459 whole entry A553V): as the sequence (P22459 whole entry T551A) above, with A551T, A553V counted along it

KV1.3 = target: T9, KV1.3 (Homo sapiens, UniProt P22001)
T9 construct: gene KCNA3
T9 sequence (P22001 whole entry): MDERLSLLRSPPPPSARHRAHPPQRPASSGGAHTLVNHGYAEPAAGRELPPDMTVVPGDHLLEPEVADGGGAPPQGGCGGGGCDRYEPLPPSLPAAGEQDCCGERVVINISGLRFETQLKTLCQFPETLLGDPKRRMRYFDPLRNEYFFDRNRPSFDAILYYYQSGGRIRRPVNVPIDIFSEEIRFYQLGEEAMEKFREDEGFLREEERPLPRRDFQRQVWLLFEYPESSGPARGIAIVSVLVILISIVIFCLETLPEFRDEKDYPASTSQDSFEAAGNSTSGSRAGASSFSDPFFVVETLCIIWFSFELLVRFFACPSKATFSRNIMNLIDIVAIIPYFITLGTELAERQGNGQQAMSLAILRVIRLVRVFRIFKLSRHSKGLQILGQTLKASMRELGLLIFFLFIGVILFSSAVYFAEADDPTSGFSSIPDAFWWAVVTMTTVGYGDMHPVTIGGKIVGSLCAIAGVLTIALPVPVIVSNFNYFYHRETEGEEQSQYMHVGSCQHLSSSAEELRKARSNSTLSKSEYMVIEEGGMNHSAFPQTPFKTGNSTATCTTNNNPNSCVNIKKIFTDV

KV1.4 [8] = target: T10, KV1.4 (Homo sapiens, UniProt P22459)
T10 construct: gene KCNA4
T10 sequence (P22459 whole entry): as the sequence (P22459 whole entry T551A) above, with A551T counted along it

T2 sequence (P16389 whole entry): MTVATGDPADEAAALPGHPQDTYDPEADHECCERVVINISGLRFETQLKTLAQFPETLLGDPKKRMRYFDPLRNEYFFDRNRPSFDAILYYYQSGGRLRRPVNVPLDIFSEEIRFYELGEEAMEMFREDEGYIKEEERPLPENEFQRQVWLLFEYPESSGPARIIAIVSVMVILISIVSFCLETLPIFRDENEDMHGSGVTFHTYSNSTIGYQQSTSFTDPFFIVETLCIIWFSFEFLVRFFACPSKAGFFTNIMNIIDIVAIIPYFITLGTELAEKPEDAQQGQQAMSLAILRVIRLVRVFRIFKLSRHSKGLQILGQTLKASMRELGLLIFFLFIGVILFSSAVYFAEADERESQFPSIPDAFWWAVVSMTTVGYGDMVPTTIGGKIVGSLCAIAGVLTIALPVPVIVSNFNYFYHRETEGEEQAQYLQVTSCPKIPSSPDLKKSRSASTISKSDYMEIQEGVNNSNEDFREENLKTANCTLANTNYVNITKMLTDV
T1 sequence (P22459 62-653, stated change not applied): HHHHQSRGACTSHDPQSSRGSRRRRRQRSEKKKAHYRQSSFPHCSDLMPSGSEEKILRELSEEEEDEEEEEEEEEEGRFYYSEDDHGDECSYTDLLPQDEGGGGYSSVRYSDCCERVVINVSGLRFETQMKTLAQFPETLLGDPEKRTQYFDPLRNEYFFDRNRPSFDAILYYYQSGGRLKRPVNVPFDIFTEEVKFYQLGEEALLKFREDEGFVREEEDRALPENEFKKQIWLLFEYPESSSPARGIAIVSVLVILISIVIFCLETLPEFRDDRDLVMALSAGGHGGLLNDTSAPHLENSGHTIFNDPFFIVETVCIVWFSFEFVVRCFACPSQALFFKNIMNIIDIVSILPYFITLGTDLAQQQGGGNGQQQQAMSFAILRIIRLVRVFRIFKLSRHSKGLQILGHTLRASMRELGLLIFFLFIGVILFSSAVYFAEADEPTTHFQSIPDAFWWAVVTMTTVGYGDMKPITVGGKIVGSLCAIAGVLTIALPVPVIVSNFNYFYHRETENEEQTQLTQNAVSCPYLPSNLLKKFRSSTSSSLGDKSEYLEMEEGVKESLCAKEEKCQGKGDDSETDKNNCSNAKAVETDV

`NCCOB(c1ccccc1)c1ccccc1` [2-APB] showed an IC50 (KV1.4 [1]) of 310 µM, an IC50 (KV1.2) of 310 µM and an inhibition at 100 µM (KV1.4 [2]) of 37.8%. It also gave an inhibition at 100 µM (KV1.4 [3]) of 44.1%, an inhibition at 100 µM (KV1.4 [4]) of 57.3% and an inhibition at 100 µM (KV1.4 [5]) of 60.8%. For the same compound, the inhibition at 100 µM (KV1.4 [6]) was 32.9%, the inhibition at 100 µM (KV1.4 [7]) was 18.4% and the IC50 (KV1.3) was 455 µM. For the same compound, the IC50 (KV1.4 [8]) was 67.3 µM.
